# How the values were obtained:
# [1] = target: BDNF/NT-3 growth factors receptor (Homo sapiens) (UniProt Q16620); assay: Selectivity interaction (KinomeScan (DiscoverX)) EUB0000229b NTRK2; conditions: at 10 µM
# [2] = target: T1, Mitogen-activated protein kinase kinase kinase 12 (Homo sapiens) (UniProt Q12852); assay: Selectivity interaction (KinomeScan (DiscoverX)) EUB0000595a MAP3K12; conditions: at 10 µM
# T1 sequence (whole entry): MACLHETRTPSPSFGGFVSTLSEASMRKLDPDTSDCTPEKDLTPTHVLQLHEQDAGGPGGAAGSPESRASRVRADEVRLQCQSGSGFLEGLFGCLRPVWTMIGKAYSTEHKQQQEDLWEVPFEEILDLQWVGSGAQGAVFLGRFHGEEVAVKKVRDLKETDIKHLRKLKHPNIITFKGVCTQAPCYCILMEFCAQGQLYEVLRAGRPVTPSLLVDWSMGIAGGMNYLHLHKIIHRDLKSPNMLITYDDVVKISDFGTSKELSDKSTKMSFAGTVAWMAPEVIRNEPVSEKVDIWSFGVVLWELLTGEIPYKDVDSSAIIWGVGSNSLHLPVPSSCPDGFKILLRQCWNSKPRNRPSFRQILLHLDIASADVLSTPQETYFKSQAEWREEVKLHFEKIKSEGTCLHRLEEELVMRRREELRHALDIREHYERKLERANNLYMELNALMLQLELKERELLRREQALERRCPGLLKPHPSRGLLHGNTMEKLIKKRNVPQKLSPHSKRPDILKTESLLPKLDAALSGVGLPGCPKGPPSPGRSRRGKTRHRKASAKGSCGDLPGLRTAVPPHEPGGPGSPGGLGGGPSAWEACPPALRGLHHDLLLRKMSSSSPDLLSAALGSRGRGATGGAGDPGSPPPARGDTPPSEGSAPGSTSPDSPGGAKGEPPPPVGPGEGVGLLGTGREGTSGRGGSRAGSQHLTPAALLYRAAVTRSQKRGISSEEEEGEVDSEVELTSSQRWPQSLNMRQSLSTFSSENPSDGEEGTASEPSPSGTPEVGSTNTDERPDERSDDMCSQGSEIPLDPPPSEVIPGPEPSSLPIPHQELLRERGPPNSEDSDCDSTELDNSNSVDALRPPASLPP
# [3] = target: DNA (cytosine-5)-methyltransferase 3A (Homo sapiens) (UniProt Q9Y6K1); assay: Selectivity interaction (Methyltransferase screen (radiometric assays, panel of 8 PRMTs, 21 protein lysine methyltransferases, 3 DNA methyltransferases, and one RNA methyltransferase)) EUB0000272b DNMT3A
# [4] = target: T2, TGF-beta receptor type-1 (Homo sapiens) (UniProt P36897); assay: Selectivity interaction (KinomeScan (DiscoverX)) EUB0001049a TGFBR1; conditions: at 1 µM
# T2 sequence (whole entry): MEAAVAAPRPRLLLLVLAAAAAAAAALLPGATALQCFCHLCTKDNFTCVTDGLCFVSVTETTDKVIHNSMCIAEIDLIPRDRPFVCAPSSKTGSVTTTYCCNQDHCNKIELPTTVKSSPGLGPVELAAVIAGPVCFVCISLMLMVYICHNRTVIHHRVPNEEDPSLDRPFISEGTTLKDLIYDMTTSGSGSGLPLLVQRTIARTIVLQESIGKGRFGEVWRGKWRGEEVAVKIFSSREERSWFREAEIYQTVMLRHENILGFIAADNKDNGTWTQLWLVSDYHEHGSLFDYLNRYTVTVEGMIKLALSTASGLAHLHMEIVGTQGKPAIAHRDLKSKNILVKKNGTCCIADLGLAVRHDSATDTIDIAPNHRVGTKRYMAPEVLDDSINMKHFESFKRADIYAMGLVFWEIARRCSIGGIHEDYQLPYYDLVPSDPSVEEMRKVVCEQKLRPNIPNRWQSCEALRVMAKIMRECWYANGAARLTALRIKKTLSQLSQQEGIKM
# [5] = target: SRSF protein kinase 2 (Homo sapiens) (UniProt P78362); assay: Selectivity interaction (KinomeScan (DiscoverX)) EUB0001619a SRPK2; conditions: at 1 µM
# [6] = target: T3, Phosphorylase b kinase gamma catalytic chain, liver/testis isoform (Homo sapiens) (UniProt P15735); assay: Selectivity interaction (SelectScreen profiling (Invitrogen)) EUB0000607a PHKG2; conditions: at 2 µM
# T3 sequence (whole entry): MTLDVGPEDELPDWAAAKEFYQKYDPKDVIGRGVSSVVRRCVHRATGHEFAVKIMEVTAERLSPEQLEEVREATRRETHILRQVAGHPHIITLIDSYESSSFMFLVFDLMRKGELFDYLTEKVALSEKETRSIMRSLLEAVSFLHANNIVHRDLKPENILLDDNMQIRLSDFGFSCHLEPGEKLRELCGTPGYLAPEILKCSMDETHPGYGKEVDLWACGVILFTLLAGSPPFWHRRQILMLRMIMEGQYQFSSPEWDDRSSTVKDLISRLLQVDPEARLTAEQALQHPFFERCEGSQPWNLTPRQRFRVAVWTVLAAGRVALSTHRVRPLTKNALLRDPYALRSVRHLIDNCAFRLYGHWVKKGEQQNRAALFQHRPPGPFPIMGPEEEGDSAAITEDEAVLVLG
# [7] = system: Proto-oncogene tyrosine-protein kinase receptor Ret (Homo sapiens), P07949 [V804L]; assay: (§1) Selectivity interaction (SelectScreen profiling (Invitrogen)) EUB0000607a RET; conditions: at 2 µM
# [8] = system: Proto-oncogene tyrosine-protein kinase receptor Ret (Homo sapiens), P07949 [Y791F]; assay: as §1; conditions: at 2 µM
# [9] = target: Angiopoietin-1 receptor (Homo sapiens) (UniProt Q02763); assay: Selectivity interaction (KinomeScan (DiscoverX)) EUB0000618a TEK; conditions: at 10 µM
# [10] = target: Dual specificity mitogen-activated protein kinase kinase 2 (Homo sapiens) (UniProt P36507); assay: Selectivity interaction (Ambit KINOMEscan and KiNATiv profiling in Jurkat cells) EUB0000090b MAP2K2; assay type: cell-based; conditions: at 1 µM
# [11] = target: Serine/threonine-protein kinase N2 (Homo sapiens, UniProt Q16513); assay: Selectivity interaction (Ambit KINOMEscan and KiNATiv profiling in Jurkat cells) EUB0000090b PKN2; assay type: cell-based; conditions: at 1 µM
# Chain of Serine/threonine-protein kinase N2 (Q16513 whole entry, looked up): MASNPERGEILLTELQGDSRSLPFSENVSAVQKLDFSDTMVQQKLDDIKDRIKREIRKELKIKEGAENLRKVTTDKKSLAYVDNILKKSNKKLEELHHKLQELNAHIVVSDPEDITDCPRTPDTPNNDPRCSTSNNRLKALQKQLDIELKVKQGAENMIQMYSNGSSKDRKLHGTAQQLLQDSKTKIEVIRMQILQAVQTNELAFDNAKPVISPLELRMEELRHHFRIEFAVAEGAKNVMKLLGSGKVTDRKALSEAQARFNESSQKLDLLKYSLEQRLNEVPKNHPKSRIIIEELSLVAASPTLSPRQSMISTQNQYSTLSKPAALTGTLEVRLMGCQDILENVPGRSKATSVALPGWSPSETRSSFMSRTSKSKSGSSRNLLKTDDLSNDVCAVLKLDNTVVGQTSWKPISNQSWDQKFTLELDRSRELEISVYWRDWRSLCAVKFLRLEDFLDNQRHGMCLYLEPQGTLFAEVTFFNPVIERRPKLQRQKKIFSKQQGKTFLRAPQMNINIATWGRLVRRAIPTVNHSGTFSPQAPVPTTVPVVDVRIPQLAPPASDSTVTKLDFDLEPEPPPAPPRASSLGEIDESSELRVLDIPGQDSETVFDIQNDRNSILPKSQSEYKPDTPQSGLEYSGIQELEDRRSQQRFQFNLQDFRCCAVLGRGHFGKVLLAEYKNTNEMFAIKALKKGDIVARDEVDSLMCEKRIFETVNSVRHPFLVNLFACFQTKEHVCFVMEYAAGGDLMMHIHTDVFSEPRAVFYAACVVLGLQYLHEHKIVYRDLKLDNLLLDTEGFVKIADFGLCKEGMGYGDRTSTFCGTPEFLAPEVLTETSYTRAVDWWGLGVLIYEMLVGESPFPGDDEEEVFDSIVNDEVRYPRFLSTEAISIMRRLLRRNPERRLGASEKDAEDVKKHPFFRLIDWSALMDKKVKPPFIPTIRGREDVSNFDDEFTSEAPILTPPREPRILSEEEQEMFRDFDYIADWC
# Chain of DNA (cytosine-5)-methyltransferase 3A (Homo sapiens) (Q9Y6K1 whole entry, looked up): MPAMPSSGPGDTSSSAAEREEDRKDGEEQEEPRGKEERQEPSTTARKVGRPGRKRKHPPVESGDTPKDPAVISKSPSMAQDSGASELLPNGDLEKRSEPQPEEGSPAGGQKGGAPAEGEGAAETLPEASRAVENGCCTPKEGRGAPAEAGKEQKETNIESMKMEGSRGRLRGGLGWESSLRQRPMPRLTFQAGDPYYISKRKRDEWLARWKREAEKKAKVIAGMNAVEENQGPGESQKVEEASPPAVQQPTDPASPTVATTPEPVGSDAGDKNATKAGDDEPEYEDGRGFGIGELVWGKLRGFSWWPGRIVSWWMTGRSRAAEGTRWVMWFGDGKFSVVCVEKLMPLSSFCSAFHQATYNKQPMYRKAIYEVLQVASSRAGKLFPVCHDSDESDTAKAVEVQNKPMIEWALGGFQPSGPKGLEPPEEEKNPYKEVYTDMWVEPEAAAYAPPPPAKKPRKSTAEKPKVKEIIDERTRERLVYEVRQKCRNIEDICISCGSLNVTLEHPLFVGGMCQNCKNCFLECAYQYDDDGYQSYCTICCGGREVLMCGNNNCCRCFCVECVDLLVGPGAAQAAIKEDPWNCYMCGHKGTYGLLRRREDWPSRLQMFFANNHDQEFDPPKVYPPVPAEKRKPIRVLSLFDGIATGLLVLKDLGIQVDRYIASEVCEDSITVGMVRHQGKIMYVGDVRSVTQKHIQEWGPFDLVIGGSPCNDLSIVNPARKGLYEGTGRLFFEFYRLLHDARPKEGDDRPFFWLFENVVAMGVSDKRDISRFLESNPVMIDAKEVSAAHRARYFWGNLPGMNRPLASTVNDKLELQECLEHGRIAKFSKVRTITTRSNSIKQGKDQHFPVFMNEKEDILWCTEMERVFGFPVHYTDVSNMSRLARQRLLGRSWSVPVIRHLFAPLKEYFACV
# Chain of Dual specificity mitogen-activated protein kinase kinase 2 (Homo sapiens) (P36507 whole entry): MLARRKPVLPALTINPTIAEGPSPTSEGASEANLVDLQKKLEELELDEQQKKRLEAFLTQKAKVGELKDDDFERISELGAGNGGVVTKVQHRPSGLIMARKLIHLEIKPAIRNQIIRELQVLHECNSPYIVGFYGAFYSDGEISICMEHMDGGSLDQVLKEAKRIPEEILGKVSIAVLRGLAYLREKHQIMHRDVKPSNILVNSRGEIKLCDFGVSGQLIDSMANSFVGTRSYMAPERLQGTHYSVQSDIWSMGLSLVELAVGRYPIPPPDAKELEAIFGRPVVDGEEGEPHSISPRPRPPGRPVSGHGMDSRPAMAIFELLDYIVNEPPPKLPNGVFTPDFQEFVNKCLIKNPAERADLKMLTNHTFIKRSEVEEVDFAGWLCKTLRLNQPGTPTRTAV
# Chain of Proto-oncogene tyrosine-protein kinase receptor Ret (Homo sapiens), P07949 [Y791F] (P07949 whole entry Y791F): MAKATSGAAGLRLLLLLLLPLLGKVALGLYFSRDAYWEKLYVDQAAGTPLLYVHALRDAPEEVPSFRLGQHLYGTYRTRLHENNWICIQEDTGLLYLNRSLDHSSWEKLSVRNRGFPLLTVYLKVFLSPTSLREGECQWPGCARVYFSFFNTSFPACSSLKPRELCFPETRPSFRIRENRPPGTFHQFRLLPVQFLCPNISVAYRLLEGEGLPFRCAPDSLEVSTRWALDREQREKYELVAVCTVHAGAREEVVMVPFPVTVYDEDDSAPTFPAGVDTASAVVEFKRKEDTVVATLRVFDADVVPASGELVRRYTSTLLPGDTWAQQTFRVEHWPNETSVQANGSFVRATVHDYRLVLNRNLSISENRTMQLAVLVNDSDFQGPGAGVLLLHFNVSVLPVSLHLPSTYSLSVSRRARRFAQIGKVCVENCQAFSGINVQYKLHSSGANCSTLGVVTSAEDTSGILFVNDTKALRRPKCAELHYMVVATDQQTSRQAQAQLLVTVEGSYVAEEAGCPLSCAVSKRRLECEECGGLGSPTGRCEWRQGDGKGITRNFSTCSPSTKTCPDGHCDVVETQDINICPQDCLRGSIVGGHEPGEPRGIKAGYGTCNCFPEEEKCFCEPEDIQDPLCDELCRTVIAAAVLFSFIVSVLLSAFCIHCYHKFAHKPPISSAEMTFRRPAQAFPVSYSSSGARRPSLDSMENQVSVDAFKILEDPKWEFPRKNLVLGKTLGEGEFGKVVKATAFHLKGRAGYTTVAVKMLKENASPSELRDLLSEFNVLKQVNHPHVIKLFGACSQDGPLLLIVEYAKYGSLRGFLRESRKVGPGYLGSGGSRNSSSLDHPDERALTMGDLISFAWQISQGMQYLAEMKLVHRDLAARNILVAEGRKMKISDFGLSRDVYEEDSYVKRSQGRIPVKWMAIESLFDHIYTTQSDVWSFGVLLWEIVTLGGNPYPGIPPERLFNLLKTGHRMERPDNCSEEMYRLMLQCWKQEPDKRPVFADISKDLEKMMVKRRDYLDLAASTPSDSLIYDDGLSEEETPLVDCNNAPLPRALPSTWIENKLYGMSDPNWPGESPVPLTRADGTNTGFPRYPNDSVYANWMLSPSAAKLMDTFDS
# Chain of BDNF/NT-3 growth factors receptor (Homo sapiens) (Q16620 32-822 limits assumed): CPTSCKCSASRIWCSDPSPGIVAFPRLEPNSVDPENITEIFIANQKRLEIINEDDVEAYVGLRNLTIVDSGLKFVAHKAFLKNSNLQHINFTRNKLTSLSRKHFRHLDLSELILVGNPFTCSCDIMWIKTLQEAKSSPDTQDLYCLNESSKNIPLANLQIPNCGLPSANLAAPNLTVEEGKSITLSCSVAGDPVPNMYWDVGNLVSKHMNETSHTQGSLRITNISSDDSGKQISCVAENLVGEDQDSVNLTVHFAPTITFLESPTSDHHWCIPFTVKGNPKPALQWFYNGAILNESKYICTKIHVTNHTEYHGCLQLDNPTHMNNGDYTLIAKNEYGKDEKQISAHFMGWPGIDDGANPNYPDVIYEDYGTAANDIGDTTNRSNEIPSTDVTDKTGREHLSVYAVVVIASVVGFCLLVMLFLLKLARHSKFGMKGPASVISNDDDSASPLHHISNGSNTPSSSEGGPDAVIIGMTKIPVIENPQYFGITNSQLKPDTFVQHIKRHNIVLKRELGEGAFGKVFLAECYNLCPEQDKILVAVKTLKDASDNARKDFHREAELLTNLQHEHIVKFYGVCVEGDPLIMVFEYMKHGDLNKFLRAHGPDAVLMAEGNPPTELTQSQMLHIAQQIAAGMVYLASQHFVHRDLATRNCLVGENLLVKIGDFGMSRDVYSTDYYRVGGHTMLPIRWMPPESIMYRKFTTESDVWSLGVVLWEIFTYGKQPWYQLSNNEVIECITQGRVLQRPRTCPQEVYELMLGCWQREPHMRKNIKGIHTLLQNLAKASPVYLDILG
# Chain of SRSF protein kinase 2 (Homo sapiens) (P78362 whole entry, looked up, canonical isoform): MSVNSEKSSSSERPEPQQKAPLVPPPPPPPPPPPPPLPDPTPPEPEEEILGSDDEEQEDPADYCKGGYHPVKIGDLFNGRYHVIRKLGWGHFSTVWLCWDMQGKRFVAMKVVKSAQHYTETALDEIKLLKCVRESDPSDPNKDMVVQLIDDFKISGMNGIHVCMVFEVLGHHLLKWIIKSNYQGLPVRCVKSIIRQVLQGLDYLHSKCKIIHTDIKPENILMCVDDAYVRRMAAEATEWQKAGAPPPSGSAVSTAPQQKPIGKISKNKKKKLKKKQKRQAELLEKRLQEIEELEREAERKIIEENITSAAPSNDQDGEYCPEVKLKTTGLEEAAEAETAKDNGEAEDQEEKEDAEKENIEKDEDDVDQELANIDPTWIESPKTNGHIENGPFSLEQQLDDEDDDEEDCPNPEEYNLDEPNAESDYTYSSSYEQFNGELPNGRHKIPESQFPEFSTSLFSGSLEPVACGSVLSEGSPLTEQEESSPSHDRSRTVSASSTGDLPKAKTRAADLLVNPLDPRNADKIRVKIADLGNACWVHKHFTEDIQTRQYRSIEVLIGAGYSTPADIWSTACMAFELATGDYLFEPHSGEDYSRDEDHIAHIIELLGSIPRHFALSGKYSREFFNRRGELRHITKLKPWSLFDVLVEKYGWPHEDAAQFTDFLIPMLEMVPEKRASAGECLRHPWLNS
# Chain of Proto-oncogene tyrosine-protein kinase receptor Ret (Homo sapiens), P07949 [V804L] (P07949 whole entry V804L): as the sequence (P07949 whole entry Y791F) above, with F791Y, V804L counted along it
compound,measurement,setting,value
COc1cc(N(C)c2ccnc3ccc(C(F)(F)F)cc23)cc(OC)c1OC,% binding,[1],100%
COCC(=O)NC/C=C/c1ccc2ncnc(Nc3ccc(Oc4ccc(C)nc4)c(C)c3)c2c1 [CP-724714],% of control,[2],92%
Cc1cc(C)cc([C@H]2c3cc(C)ccc3NC(=O)CN2C(=O)c2ccc(Br)s2)c1,% of activity,[3]; at 1 µM,98.3%
same,% of activity,[3]; at 10 µM,93%
COc1cc(Nc2nc(C)cc(-c3cnn4nc(OC)ccc34)n2)cc(C(F)(F)F)c1,% of control,[4],100%
N#Cc1cccc(-c2c[nH]c3ncnc(N4CCOCC4)c23)c1,% of control,[5],70%
CNC(=O)Nc1ccc(-c2nc(N3CC4CCC(C3)O4)c3cnn(C4CCC5(CC4)OCCO5)c3n2)cc1,% of inhibition,[6],12%
same,% of inhibition,[7],2%
same,% of inhibition,[8],2%
O[C@H]1CC[C@H](Nc2ncc3nc(Nc4c(F)cc(F)cc4F)n([C@H]4CCOC4)c3n2)CC1,% of control,[9],100%
CN(C)C/C=C/C(=O)Nc1ccc(C(=O)N2CCCC(Nc3ncc(Cl)c(-c4c[nH]c5ccccc45)n3)C2)cc1 (configuration not stated),% of control,[10],93%
same,% of control,[11],98%
